Target: T1, ABCB1 (P-glycoprotein/P-gp/MDR1) (Homo sapiens, UniProt P08183)
T1 construct: full-length ABCB1 overexpressed in High Five insect cells; crude membranes
Assay: vanadate-sensitive ATPase assay, inorganic phosphate release, ABCB1 membranes
Format: biochemical
Settings: High Five membranes 100 µg/mL, 12 mM Mg-ATP, 37 °C, 0.01-5 µM

T1 sequence (P08183 whole entry): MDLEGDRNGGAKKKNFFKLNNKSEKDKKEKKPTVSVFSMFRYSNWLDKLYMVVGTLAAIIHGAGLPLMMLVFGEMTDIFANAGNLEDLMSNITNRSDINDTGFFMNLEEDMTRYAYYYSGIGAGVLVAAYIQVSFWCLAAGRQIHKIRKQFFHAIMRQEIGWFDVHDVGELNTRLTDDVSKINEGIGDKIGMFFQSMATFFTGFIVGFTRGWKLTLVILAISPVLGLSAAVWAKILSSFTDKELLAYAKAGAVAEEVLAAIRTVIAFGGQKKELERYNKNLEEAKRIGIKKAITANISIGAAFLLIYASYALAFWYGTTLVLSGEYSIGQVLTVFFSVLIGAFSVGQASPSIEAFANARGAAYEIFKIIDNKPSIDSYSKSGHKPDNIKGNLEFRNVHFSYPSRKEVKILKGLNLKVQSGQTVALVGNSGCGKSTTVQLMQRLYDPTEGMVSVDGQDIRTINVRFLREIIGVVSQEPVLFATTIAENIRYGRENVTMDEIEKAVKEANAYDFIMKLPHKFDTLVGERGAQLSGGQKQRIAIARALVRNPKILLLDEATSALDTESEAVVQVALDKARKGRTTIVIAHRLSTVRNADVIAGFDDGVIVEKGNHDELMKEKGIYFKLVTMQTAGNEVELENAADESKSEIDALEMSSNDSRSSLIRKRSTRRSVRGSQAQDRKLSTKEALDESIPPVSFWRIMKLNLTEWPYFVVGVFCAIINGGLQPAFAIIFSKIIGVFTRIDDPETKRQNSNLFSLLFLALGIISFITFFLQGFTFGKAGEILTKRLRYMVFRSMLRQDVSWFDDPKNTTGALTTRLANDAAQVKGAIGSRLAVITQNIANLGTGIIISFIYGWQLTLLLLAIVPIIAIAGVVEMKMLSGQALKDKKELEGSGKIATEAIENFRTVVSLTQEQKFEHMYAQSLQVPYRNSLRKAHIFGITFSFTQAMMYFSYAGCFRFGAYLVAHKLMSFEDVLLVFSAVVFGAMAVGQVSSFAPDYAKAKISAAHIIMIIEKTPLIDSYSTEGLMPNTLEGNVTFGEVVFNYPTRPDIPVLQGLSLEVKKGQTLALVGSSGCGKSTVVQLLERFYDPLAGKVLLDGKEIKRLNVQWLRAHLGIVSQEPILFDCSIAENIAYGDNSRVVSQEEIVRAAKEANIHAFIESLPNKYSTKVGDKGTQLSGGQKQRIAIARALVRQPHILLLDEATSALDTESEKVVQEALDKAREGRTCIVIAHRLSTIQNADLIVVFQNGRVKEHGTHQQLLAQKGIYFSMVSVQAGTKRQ

## C=C(F)C(=O)N1CCN(c2nc(OC[C@@H]3CCCN3C)nc3c2CCN(c2cccc4cccc(Cl)c24)C3)C[C@@H]1CC#N [MRTX849]
  ATPase stimulation: MRTX849- stimulated activity of ABCB1 ATPase was dose-dependent

From paper PMC9472360, “Adagrasib, a KRAS G12C inhibitor, reverses the multidrug resistance mediated by ABCB1 in vitro and in vivo” (Cell Communication and Signaling : CCS, 2022)
